Broadly, the half-life is how long it takes for the measured level to halve. The term Ki denotes a measure of affinity in units of concentration, obtained from inhibition or displacement.

A short description of data set [1]: Half-life determination in mouse plasma (LC-MS). The class given is in vitro ADME. The following applies: 37° C. The gist of the method: (§1)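 Compound samples of about 50–500 μg/ml were added to 450 μl human or mouse plasma and incubated at 37 °C. Aliquots taken from 0 to 48 h were precipitated with acetonitrile. Supernatants were analysed by LC-MS (positive-mode ESI, C8 column, acetic acid water/acetonitrile gradient).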

Data set [2] can be described thus: Half-life determination in human plasma (LC-MS). The class given is in vitro ADME. Particulars: 37° C. The procedure, abridged: as §1
A further data set concerns the target T1, hSSTR-1 (Homo sapiens, UniProt P30872).
T1 construct: expressed in transfected cells; host or cells: CHO-K1
Briefly: Somatostatin receptor radioligand binding, hSSTR-1 (CHO-K1 membranes). The following applies: read-out: Ki hSSTR1 ± (SEM).

In a further data set the target is T2, hSSTR-2 (Homo sapiens, UniProt P30874).
T2 construct: expressed in transfected cells; host or cells: CHO-K1
T2 sequence (P30874 whole entry): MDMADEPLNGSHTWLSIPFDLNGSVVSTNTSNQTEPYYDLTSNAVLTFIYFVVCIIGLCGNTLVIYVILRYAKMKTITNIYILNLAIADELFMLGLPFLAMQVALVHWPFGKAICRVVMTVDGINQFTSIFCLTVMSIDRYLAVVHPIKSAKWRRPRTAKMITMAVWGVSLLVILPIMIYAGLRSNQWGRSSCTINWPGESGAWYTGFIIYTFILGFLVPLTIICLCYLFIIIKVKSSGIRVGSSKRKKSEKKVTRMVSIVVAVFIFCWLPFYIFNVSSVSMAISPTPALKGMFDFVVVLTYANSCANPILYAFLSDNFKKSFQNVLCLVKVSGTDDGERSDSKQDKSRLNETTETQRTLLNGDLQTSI
Briefly: Somatostatin receptor radioligand binding, hSSTR-2 (CHO-K1 membranes). The following applies: read-out: Ki hSSTR2 ± (SEM).

In the next data set the target is T3, hSSTR-3 (Homo sapiens, UniProt P32745).
T3 construct: expressed in transfected cells; host or cells: CHO-K1
T3 sequence (P32745 whole entry): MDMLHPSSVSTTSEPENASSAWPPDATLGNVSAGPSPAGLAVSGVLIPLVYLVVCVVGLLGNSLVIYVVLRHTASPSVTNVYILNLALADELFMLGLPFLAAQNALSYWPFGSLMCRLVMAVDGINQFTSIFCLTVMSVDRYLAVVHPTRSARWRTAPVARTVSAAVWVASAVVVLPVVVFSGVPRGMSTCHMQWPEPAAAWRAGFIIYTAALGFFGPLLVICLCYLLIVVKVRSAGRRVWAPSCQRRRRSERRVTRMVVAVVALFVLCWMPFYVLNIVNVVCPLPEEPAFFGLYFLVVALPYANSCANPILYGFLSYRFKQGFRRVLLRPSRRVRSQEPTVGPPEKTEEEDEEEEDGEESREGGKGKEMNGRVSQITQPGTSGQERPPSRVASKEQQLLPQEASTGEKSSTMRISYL
Briefly: Somatostatin receptor radioligand binding, hSSTR-3 (CHO-K1 membranes). The following applies: read-out: Ki hSSTR3 ± (SEM).

A further data set addresses T4, hSSTR-4 (Homo sapiens, UniProt P31391).
T4 construct: expressed in transfected cells; host or cells: CHO-K1
Description: Somatostatin receptor radioligand binding, hSSTR-4 (CHO-K1 membranes). Particulars: read-out: Ki hSSTR4 ± (SEM).

The next data set concerns the target T5, hSSTR-5 (Homo sapiens, UniProt P35346).
T5 construct: expressed in transfected cells; host or cells: CHO-K1
Description: Somatostatin receptor radioligand binding, hSSTR-5 (CHO-K1 membranes). The following applies: read-out: Ki hSSTR5 ± (SEM).

The next data set deals with NCI-H69 cells. Briefly: In vivo growth assay, NCI-H69 small cell lung carcinoma xenograft in nude mice. Also on record: species or system human. The following applies: female athymic nude mice, qwk×3, i.v.
A further data set concerns K562 cells. Briefly: In vivo growth assay, K562 human chronic myelogenous leukemia xenograft in nude mice. The following applies: female athymic nude mice, qwk×3, i.v.; 165.6, 138, 55.2 mg/kg. The text has this:
FIG. 2: Effects of Example 5C against tumor model human chronic myelogenous leukemia K562 in female athymic nude mice.
(§2) In other experiments, animals were implanted with human xenografts derived from NCI-H345 cells (human small cell lung carcinoma; […]), A549 cells (non-small cell lung carcinoma), MDA-MB-231 cells (breast cancer) and K562 cells (human chronic myelogenous leukemia; […]) and then subjected to treatment with the compounds of Formula I or II and the appropriate controls as described herein.
A general note: In xenograft studies the graft and the host belong to different species.

Another data set has as its system NCI-H345 cells. Description: In vivo growth assay, NCI-H345 small cell lung carcinoma xenograft in nude mice. Details: species or system human. The following applies: female athymic nude mice, qwk×3, i.v.; 165.6, 138, 55.2 mg/kg.
Text: FIG. 3: Effects of Example 5C against small cell lung carcinoma tumor model H345 SCLC in female athymic nude mice.
as §2

“Also recorded” adds a separate entry of the source. Numbered stars: 1 amine (or outer) side, 2 acyl side, 3 side chain; on linkers, the order of the positions; unused ones are H or OH. Bridge positions count the residues as written; N and C are the ends. Square brackets hold non-standard residues; d marks the D form. Peptide text beside a SMILES is read from it. * marks the point of attachment. X1 = CC[C@@]1(O*)C(=O)OCc2c1cc1n(c2=O)Cc2cc3ccccc3nc2-1; Tyr(3-I) = N[C@@H](Cc1ccc(O)c(I)c1)C(=O)O; Glutaryl = O=C(CCCC(=O)[*:2])[*:1]; Abu = CC[C@H](N)C(=O)O; AEEA = NCCOCCOCC(=O)O

T4 sequence (P31391 whole entry): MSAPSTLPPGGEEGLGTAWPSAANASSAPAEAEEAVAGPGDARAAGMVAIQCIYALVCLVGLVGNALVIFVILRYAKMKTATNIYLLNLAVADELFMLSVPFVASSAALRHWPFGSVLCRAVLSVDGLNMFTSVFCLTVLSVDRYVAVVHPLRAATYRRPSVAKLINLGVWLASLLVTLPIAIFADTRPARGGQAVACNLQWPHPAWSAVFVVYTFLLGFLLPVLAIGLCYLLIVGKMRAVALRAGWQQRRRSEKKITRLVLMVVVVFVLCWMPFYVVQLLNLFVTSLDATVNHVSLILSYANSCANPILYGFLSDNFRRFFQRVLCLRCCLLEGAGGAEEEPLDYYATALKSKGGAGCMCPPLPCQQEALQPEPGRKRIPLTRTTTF
T5 sequence (P35346 whole entry): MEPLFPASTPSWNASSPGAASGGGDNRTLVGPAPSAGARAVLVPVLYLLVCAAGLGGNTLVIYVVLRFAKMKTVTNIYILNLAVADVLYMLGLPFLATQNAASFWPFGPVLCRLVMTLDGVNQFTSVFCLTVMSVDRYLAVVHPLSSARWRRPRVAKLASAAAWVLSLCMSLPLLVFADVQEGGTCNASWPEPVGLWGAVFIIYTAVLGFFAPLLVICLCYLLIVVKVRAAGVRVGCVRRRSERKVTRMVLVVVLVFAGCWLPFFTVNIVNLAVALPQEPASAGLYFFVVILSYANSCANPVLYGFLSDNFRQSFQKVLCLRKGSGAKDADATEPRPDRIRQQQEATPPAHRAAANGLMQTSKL
T1 sequence (P30872 whole entry): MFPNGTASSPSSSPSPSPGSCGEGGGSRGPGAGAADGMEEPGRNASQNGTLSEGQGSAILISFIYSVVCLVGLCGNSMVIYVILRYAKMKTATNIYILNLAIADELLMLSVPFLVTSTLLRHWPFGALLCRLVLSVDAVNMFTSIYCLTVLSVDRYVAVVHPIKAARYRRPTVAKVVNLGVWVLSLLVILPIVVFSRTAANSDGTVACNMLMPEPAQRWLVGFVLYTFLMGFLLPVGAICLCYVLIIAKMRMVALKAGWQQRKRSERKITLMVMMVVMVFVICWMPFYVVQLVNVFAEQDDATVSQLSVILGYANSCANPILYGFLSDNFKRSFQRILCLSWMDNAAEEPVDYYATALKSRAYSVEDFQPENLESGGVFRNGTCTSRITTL
Description for NCI-H69 cells: The mice were housed in microisolators on a 12-hour light cycle at 22° C. (72° F.) and 40%-60% humidity.
Mice were implanted subcutaneously in the flank with 5×10^6 cells of NCI-H69 cells along with an equal volume of Matrigel® Matrix (BD Biosciences, San Jose, Calif., U.S.A.), a solubilized basement membrane preparation extracted from EHS mouse sarcoma, a tumor rich in ECM proteins. The tumors were monitored initially twice weekly and then daily as the neoplasms reached the desired size of approximately 100 mm^3, (100 mg). When the small cell lung carcinomas attained the desired size in calculated tumor weight, the animals were pair-matched on Day 1 into various treatment groups. The estimated tumor weight was calculated using the formula:
[formula] where w=width and l=length, both measured in mm, of a small cell lung carcinoma.
Animals with tumors were then subject to either no treatment at all, treatment with a vehicle control (either saline or water), treatment with a camptothecin only control (7.5 mg/kg) or treatment with a compound according to Formula I or II as discussed above. All treatments were administered intravenously.
Description for hSSTR-2: (§3) Membranes for in vitro receptor binding assays were obtained by homogenizing (Polytron setting 6, 15 sec) CHO-K1 cells expressing human somatostatin receptor subtypes hSSTR-1, hSSTR-2, hSSTR-3, hSSTR-4 or hSSTR-5 in ice-cold 50 mM Tris-HCl. The homogenized cells were centrifuged twice at 39,000 g for 10 minutes with an intermediate resuspension in fresh buffer. The final pellets were resuspended in 10 mM Tris-HCl to prepare the cell membrane homogenate for use in the binding assay.
(§4) For the hSSTR-1, hSSTR-3, and hSSTR-4 assays, aliquots of the membrane preparations were incubated for 90 minutes at 25° C. with 0.05 nM [^125I-Tyr11]SRIF-14 in 50 mM HEPES (pH 7.4) buffer containing 0.2% BSA and 5 mM MgCl2. The final assay volume was 0.3 ml. For the hSSTR-2 and hSSTR-5 assays, [^125I]-[4-(2-hydroxyethyl)]-1-piperazinylacetyl-D-Phe-c(Cys-Tyr-D-Trp-Lys-Abu-Cys)-Thr-NH2 (0.05 nM) and [^125I]-D-Phe-c(Cys-Tyr-D-Trp-Lys-Val-Cys)-Thr-NH2 were employed as the radioligands, respectively.
(§5) The cell membrane homogenate was incubated with the radioligands for 90 minutes at 25° C. The incubations were terminated by rapid filtration through GF/C filters pre-soaked in 0.3% polyethylenimine using a Brandel® filtration manifold (Gaithersberg, Md., U.S.A.). Each tube and filter was washed three times with 5-ml aliquots of ice-cold buffer. Specific binding was defined as the total radioligand bound minus that bound in the presence of 1000 nM SRIF-14 (for hSSTR-1, hSSTR-3, hSSTR-4 or hSSTR-5), or 1000 nM DPhe-c(Cys-Tyr-D-Trp-Lys-Abu-Cys)-Thr-NH2 for hSSTR-2.
Description for hSSTR-3: as §3, §4, §5
Description for hSSTR-4: as §3, §4, §5
Description for hSSTR-5: as §3, §4, §5

As to `CC[C@@]1(OC(=O)CNC(=O)CCCC(=O)NCCOCCOCC(=O)NCCOCCOCC(=O)NCCOCCOCC(=O)NCCOCCOCC(=O)N[C@@H](CCCCN)C(=O)N[C@H](Cc2ccc(O)cc2)C(=O)N[C@H](Cc2ccc(O)cc2)C(=O)N[C@H]2CSSC[C@@H](C(N)=O)NC(=O)[C@H]([C@@H](C)O)NC(=O)[C@H](CCCCN)NC(=O)[C@@H](Cc3c[nH]c4ccccc34)NC(=O)[C@H](Cc3ccccc3)NC(=O)[C@H](Cc3ccccc3)NC2=O)C(=O)OCc2c1cc1n(c2=O)Cc2cc3ccccc3nc2-1` [Example 4, Camptothecin-rvGly-Glut-(Doc)4-Lys-D-Tyr-D-Tyr-c(Cys-Phe-Phe-D-Trp-Lys-Thr-Cys)-NH2] ({X1-Gly-Glutaryl-AEEA-AEEA-AEEA-AEEA}-K[dY][dY]CFF[dW]KTC-NH2; disulfide 4-10), the half-life in data set [1] was 264 min; in data set [2], 192 min. Moreover, the inhibition constant Ki is at least 1000 nM at hSSTR-1; 9.38 nM on hSSTR-2; at least 1000 nM on hSSTR-3; at least 1000 nM at hSSTR-4; 481 nM on hSSTR-5.

As to “Camptothecin-rvD-Asp-Suc-(Doc)4-Aepa-D-Phe-c(Cys-Tyr-D-Trp-Lys-Abu-Cys)-Thr-NH2 [Example 5C]”, the “tumor growth in vivo, NCI-H69 xenograft (FIG. 1)” value in the data set on NCI-H69 cells was “Suppression of tumor growth”. For the same compound, the “tumor growth in vivo, K562 human chronic myelogenous leukemia xenograft” value in the data set with K562 cells was “Suppression of tumor growth; also recorded: suppressed growth”. Moreover, the “tumor growth in vivo, H345 small cell lung carcinoma xenograft” value with NCI-H345 cells is recorded as “Suppression of tumor growth; also recorded: suppressed growth”.

Consider “Camptothecin-rvD-Asp-Suc-(Doc)4-Aepa-D-Phe-c(Cys-Tyr-D-Trp-Lys-Abu-Cys)-Thr-NH2 Camptothecin-rvAsp-Suc-(Doc)4-Aepa-D-Phe-c(Cys-Tyr-D-Trp-Lys-Abu-Cys)-Thr-NH2 [Example 5B]”, for which the “tumor growth in vivo, NCI-H69 xenograft (FIG. 1)” value in the data set on NCI-H69 cells is on record as “Suppression of tumor growth”.

Turning to `CC[C@@H]1NC(=O)[C@H](CCCCN)NC(=O)[C@@H](Cc2c[nH]c3ccccc23)NC(=O)[C@H](Cc2ccc(O)c(I)c2)NC(=O)[C@@H](NC(=O)[C@@H](Cc2ccc(O)cc2)NC(=O)[C@@H](Cc2ccc(O)cc2)NC(=O)[C@H](CCCCN)NC(=O)COCCOCCNC(=O)COCCOCCNC(=O)COCCOCCNC(=O)COCCOCCNC(=O)COCCOCCNC(=O)COCCOCCNC(=O)CCCC(=O)NCC(=O)O[C@]2(CC)C(=O)OCc3c2cc2n(c3=O)Cc3cc4ccccc4nc3-2)CSSC[C@@H](C(=O)N[C@H](C(N)=O)[C@@H](C)O)NC1=O` [Example 2, Camptothecin-rvGly-Glut-(Doc)6-Lys-D-Tyr-D-Tyr-c(Cys-3-(I)Tyr-D-Trp-Lys-Abu-Cys)-Thr-NH2] ({X1-Gly-Glutaryl-AEEA-AEEA-AEEA-AEEA-AEEA-AEEA}-K[dY][dY]C[Tyr(3-I)][dW]K[Abu]CT-NH2; disulfide 4-9), the half-life in data set [1] is 276 min; in data set [2] it was 132 min. Further, the Ki on hSSTR-1 is at least 1000 nM; at hSSTR-2 it was 0.36 nM; on hSSTR-3, 125 nM; at hSSTR-4, at least 1000 nM; at hSSTR-5, 3 nM.

Take `CC[C@@H]1NC(=O)[C@H](CCCCN)NC(=O)[C@@H](Cc2c[nH]c3ccccc23)NC(=O)[C@H](Cc2ccc(O)c(I)c2)NC(=O)[C@@H](NC(=O)[C@@H](Cc2ccc(O)cc2)NC(=O)[C@@H](Cc2ccc(O)cc2)NC(=O)[C@H](CCCCN)NC(=O)COCCOCCNC(=O)COCCOCCNC(=O)COCCOCCNC(=O)COCCOCCNC(=O)CCCC(=O)NCC(=O)O[C@]2(CC)C(=O)OCc3c2cc2n(c3=O)Cc3cc4ccccc4nc3-2)CSSC[C@@H](C(=O)N[C@H](C(N)=O)[C@@H](C)O)NC1=O` [Example 3, Camptothecin-rvGly-Glut-(Doc)4-Lys-D-Tyr-D-Tyr-c(Cys-3-(I)Tyr-D-Trp-Lys-Abu-Cys)-Thr-NH2] ({X1-Gly-Glutaryl-AEEA-AEEA-AEEA-AEEA}-K[dY][dY]C[Tyr(3-I)][dW]K[Abu]CT-NH2; disulfide 4-9): the half-life was 342 min in data set [1] and 228 min in [2]. In addition, the Ki on hSSTR-1 is at least 1000 nM; on hSSTR-2, 0.1 nM; at hSSTR-3, 94 nM; at hSSTR-4, at least 1000 nM; on hSSTR-5 it was 3.86 nM.

For the origin of these results see patent US8236762B2, “Peptide-cytotoxic conjugates” (IPSEN Pharma S.A.S., priority 2006, dated 2012).
